Measured values: US11512079B2, “Heterocycle substituted pyridine derivative antifungal agents” (Amplyx Pharmaceuticals, Inc., priority 2017, dated 2022)
Values after ≈ are worked out from the molar mass of the structure shown.

Columns and labels:
Type in all cases: cell-based
Candida albicans 90028 = assay: In vitro antifungal assay (Example IX), microdilution broth, MIC; details: minimum inhibitory concentration (≥50% inhibition), 35° C., 40-48 h, RPMI1640
Procedure: Measurement of antifungal activity: Antifungal activity of the compounds was evaluated in a microdilution broth assay as per Clinical and Laboratory Standard Institute methodology for yeast (for Candida and Cryptococcus) (1) and molds (for Aspergillus and Rhizomucor) (2). Candida albicans 90028, Aspergillus fumigatus MYA3626, Rhizomucor pusillus 46342 and Cryptococcus neoformans H99 strains were obtained from American Type Culture Collection (ATCC).
Preparation of Fungal Suspension. C. albicans 90028 and C. neoformans H99 strains were streaked from frozen stocks at −80° C. onto Sabouraud Dextrose Agar (SDA) plates. These were allowed to grow for 24 h (C. albicans) and 48 h (C. neoformans) at 35° C. before using them in the assay. 5-6 individual colonies were picked and diluted into sterile water to obtain a fungal suspension. The cell density of the suspension was determined and the culture diluted with RPMI1640 medium to obtain a fungal suspension of 2.5×10^3 cells/mL. The suspension was used in the MIC measurement as described below.
Preparation of Compound Stocks and Intermediate Dilutions: The compounds were weighed and DMSO was added to prepare a 10 mg/mL stock. The solutions were mixed by vortexing and sonication at 37° C. for 5-10 mins. The resulting solutions were sterile filtered using a PTFE filter, and aliquoted (12 μL or as needed) and stored at −20° C. Intermediate compound dilutions were prepared in sterile polypropylene tubes in 100% DMSO. The compound stock solution was first diluted in DMSO to obtain a concentration of […] to 0.19 μg/mL.
MIC/MEC Measurement: 99 μL 1 of the fungal suspension in RPMI1640 prepared as above was added to each well of a 96-well round bottom assay plate. 1 μL of the intermediate compound dilutions (200-0.19 μg/mL) were added to wells of the plate. This led to a 100-fold dilution of the intermediate dilutions resulting in a final compound concentration of 2-0.0019 μg/mL in the plate. 1 μL of DMSO was added to “No drug” control wells. The solutions were mixed by shaking on a plate shaker for 10 mins and plates incubated at 35° C. for 40-48 h (C. albicans, A. fumigatus, R. pusillus) and 72 h (Cryptococcus). […] This was validated by thorough mixing and reading at 600 nm on a microplate reader. The minimum concentration that led to shortening of hyphae as compared to hyphal growth in DMSO control wells was determined as the minimum effective concentration (MEC) for A. fumigatus and R. pusillus (as read for echinocandins). The use of the MIC and MEC endpoints against yeasts and molds, respectively has been described by Pfaller M A, Duncanson F, Messer S A, Moet G J, Jones R N, Castanheira M. Antimicrob Agents Chemother. 2011. 55(11):5155-8. In vitro activity of a novel broad-spectrum antifungal, E1210, tested against Aspergillus spp. determined by CLSI and EUCAST broth microdilution methods. Results are shown in Table 2, and the letters indicate the following ranges in μg/mL: […]

[1] = test system: Aspergillus fumigatus MYA3626; assay: In vitro antifungal assay (Example IX), microdilution broth, MEC; details: minimum effective concentration (shortening of hyphae), 35° C., 40-48 h, RPMI1640
Procedure: (§1) Measurement of antifungal activity: […] Candida albicans 90028, Aspergillus fumigatus MYA3626, Rhizomucor pusillus 46342 and Cryptococcus neoformans […] strains were obtained from American Type Culture Collection (ATCC). […] (A. fumigatus) and 35° C. (R. pusillus). Water containing 1% Tween was directly added to the agar plate and gently agitated to wet and remove the Aspergillus conidia. For R. pusillus, water was added to the surface and gently massaged to wet and remove the spores. For both species, the conidia or spores and mycelial fragments were collected, followed by removal of mycelium, conidiophores and large clumps of conidia/spores. The resulting spore suspension was counted and diluted into RPMI1640 medium to adjust to a final suspension of 1-2×10^4 spores/mL. The suspension was used in the MEC measurement as described below. […] The compounds were weighed and DMSO was added to prepare a 10 mg/mL stock. The solutions were mixed by vortexing and sonication at 37° C. for 5-10 mins. The resulting solutions were sterile filtered using a PTFE filter, and aliquoted (12 μL or as needed) and stored at -20° C. Intermediate compound dilutions were prepared in sterile polypropylene tubes in 100% DMSO. […] This was validated by thorough mixing and reading at 600 nm on a microplate reader. The minimum concentration that led to shortening of hyphae as compared to hyphal growth in DMSO control wells was determined as the minimum effective concentration (MEC) for A. fumigatus and R. pusillus (as read for echinocandins). The use of the MIC and MEC endpoints against yeasts and molds, respectively has been described by Pfaller M A, Duncanson F, Messer S A, Moet G J, Jones […]. Antimicrob Agents Chemother. 2011. 55(11):5155-8. In vitro activity of a novel broad-spectrum antifungal, […], tested against Aspergillus spp. determined by CLSI and EUCAST broth microdilution methods. Results are shown in Table 2, and the letters indicate the following ranges in μg/mL: […]

[2] = test system: Rhizomucor pusillus 46342; assay: as above; details: minimum effective concentration (shortening of hyphae), 35° C., 40-48 h, RPMI1640
Procedure: as §1

SMILES | MIC (Candida albicans 90028) | minimal effective concentration [1] | minimal effective concentration [2]
Nc1ncccc1-c1cc(Cc2ccc(OCCCc3ccc(OCc4ccccc4)cc3)nc2)no1 [compound 214, 3-(3-((6-(3-(4-(benzyloxy)phenyl)propoxy)pyridin-3-yl)methyl)isoxazol-5-yl)pyridin-2-amine] | > 1 µg/mL | > 1 µg/mL | > 1 µg/mL
Nc1ncccc1-c1cc(Cc2ccc(OC3CCCc4cccnc43)nc2)no1 (stereo not drawn) [compound 129, 3-(3-((6-((5,6,7,8-tetrahydroquinolin-8-yl)oxy)pyridin-3-yl)methyl)isoxazol-5-yl)pyridin-2-amine] | > 1 µg/mL | > 1 µg/mL | > 1 µg/mL
Nc1ncccc1-c1cc(Cc2ccc(N3CCCCC3)nc2)no1 [compound 230, 3-(3-((6-(piperidin-1-yl)pyridin-3-yl)methyl)isoxazol-5-yl)pyridin-2-amine] | 0.1 to 1 µg/mL (≈ 0.298 to 2.98 µM) | 0.1 to 1 µg/mL | > 1 µg/mL
C=Cc1ccc(Cc2cc(-c3cccnc3N)on2)cc1 [compound 97, 3-(3-(4-Vinylbenzyl)isoxazol-5-yl)pyridin-2-amine] | > 1 µg/mL | 0.1 to 1 µg/mL | > 1 µg/mL
COc1ccc(F)cc1OCc1ccc(Cc2cc(-c3cccnc3N)on2)cc1 [compound 192, 3-(3-(4-((5-fluoro-2-methoxyphenoxy)methyl)benzyl)isoxazol-5-yl)pyridin-2-amine] | 0.1 to 1 µg/mL (≈ 0.247 to 2.47 µM) | 0.1 to 1 µg/mL | > 1 µg/mL
Nc1ncccc1-c1cc(Cc2ccnc(OCc3cccc(F)c3)c2)no1 [compound 86, 3-(3-((2-((3-fluorobenzyl)oxy)pyridin-4-yl)methyl)isoxazol-5-yl)pyridin-2-amine] | 0.01 to 0.1 µg/mL (≈ 0.0266 to 0.266 µM) | 0.01 to 0.1 µg/mL | > 1 µg/mL
Nc1ncccc1-c1cc(Cc2ccc(OCc3ccccc3C(F)(F)F)nc2)no1 [compound 128, 3-(3-((6-((2-(trifluoromethyl)benzyl)oxy)pyridin-3-yl)methyl)isoxazol-5-yl)pyridin-2-amine] | > 1 µg/mL | 0.1 to 1 µg/mL | > 1 µg/mL
Nc1ncccc1-c1cc(Cc2ccc(COc3ccc(Cl)c4ccccc34)cc2)no1 [compound 25, 3-(3-(4-(((4-chloronaphthalen-1-yl)oxy)methyl)benzyl)isoxazol-5-yl)pyridin-2-amine] | > 1 µg/mL | > 1 µg/mL | > 1 µg/mL
Nc1ncccc1-c1cc(Cc2ccc(CNCc3ccn[nH]3)cc2)no1 [compound 93, 3-(3-(4-((((1H-pyrazol-5-yl)methyl)amino)methyl)benzyl)isoxazol-5-yl)pyridin-2-amine] | > 1 µg/mL | > 1 µg/mL | > 1 µg/mL
Nc1ncccc1-c1cc(Cc2ccc(Oc3c[n+]([O-])ccn3)cc2)no1 [compound 119, 3-(4-((5-(2-aminopyridin-3-yl)isoxazol-3-yl)methyl)phenoxy)pyrazine 1-oxide] | > 1 µg/mL | > 1 µg/mL | > 1 µg/mL
Nc1ncccc1-c1cc(Cc2cccc(OCc3ccccc3F)n2)no1 [compound 90, 3-(3-((6-((2-fluorobenzyl)oxy)pyridin-2-yl)methyl)isoxazol-5-yl)pyridin-2-amine] | 0.1 to 1 µg/mL (≈ 0.266 to 2.66 µM) | > 1 µg/mL | > 1 µg/mL
CC(C)(COc1ccc(Cc2cc(-c3cccnc3N)on2)cn1)c1ccccc1 [Example 163, 3-(3-((6-(2-methyl-2-phenylpropoxy)pyridin-3-yl)methyl)isoxazol-5-yl)pyridin-2-amine] | > 1 µg/mL | 0.1 to 1 µg/mL | 0.1 to 1 µg/mL
CCCc1cccc(OCc2ccc(Cc3cc(-c4cccnc4N)on3)cc2)c1 [compound 103, 3-(3-(4-((3-propylphenoxy)methyl)benzyl)isoxazol-5-yl)pyridin-2-amine] | 0.1 to 1 µg/mL (≈ 0.25 to 2.5 µM) | 0.1 to 1 µg/mL | > 1 µg/mL
Nc1ncccc1-c1cc(Cc2ccc(CCl)cc2)no1 [B, 3-(3-(4-(chloromethyl)benzyl)isoxazol-5-yl)pyridin-2-amine] | > 1 µg/mL | 0.1 to 1 µg/mL | > 1 µg/mL
Nc1ncccc1-c1cc(Cc2ccc(N3CCOCC3)nc2)no1 [compound 227, 3-(3-((6-morpholinopyridin-3-yl)methyl)isoxazol-5-yl)pyridin-2-amine] | > 1 µg/mL | > 1 µg/mL | > 1 µg/mL
Nc1ncccc1-c1cc(Cc2ccc(OCc3cc(F)cc(Cl)c3)nc2)no1 [compound 87, 3-(3-((6-((3-chloro-5-fluorobenzyl)oxy)pyridin-3-yl)methyl)isoxazol-5-yl)pyridin-2-amine] | 0.1 to 1 µg/mL (≈ 0.243 to 2.43 µM) | 0.01 to 0.1 µg/mL | > 1 µg/mL
Nc1ncccc1-c1cc(Cc2ccc(OCC3COC3)nc2)no1 [compound 44, 3-(3-((6-(oxetan-3-ylmethoxy)pyridin-3-yl)methyl)isoxazol-5-yl)pyridin-2-amine] | 0.1 to 1 µg/mL (≈ 0.296 to 2.96 µM) | > 1 µg/mL | > 1 µg/mL
c1ccc(Sc2ccc(Cn3cc(-c4cccnc4)cn3)cn2)cc1 [compound 66, 2-(phenylthio)-5-((4-(pyridin-3-yl)-1H-pyrazol-1-yl)methyl)pyridine] | 0.1 to 1 µg/mL (≈ 0.29 to 2.9 µM) | 0.1 to 1 µg/mL | > 1 µg/mL
CC1=C(Oc2ccc(Cc3cc(-c4cccnc4N)on3)cn2)C(=O)C(C)O1 (stereo not drawn) [compound 71, 4-((5-((5-(2-aminopyridin-3-yl)isoxazol-3-yl)methyl)pyridin-2-yl)oxy)-2,5-dimethylfuran-3(2H)-one] | > 1 µg/mL | > 1 µg/mL | > 1 µg/mL
CS(=O)(=O)Nc1cccc(Cc2ccc(Cc3cc(-c4cccnc4N)on3)cc2)c1 [compound 211, N-(3-(4-((5-(2-aminopyridin-3-yl)isoxazol-3-yl)methyl)benzyl)phenyl)methanesulfonamide] | > 1 µg/mL | > 1 µg/mL | > 1 µg/mL
Nc1ncccc1-c1cc(Cc2ccc(Nc3cccc(F)c3)nc2)no1 [compound 59, 5-((5-(2-aminopyridin-3-yl)isoxazol-3-yl)methyl)-N-(3-fluorophenyl)pyridin-2-amine] | 0.1 to 1 µg/mL (≈ 0.277 to 2.77 µM) | 0.1 to 1 µg/mL | > 1 µg/mL
Nc1ccc(-c2cnn(Cc3ccc(OCc4ccccc4)nc3)c2)cn1 [compound 68, 5-(1-((6-(benzyloxy)pyridin-3-yl)methyl)-1H-pyrazol-4-yl)pyridin-2-amine] | 0.1 to 1 µg/mL (≈ 0.28 to 2.8 µM) | 0.1 to 1 µg/mL | > 1 µg/mL
